pEC50: −log10 of the molar value. “And” between values parts separate entries of the source, which are not always exact repeats. Equal values may be shown once. Read-outs that look alike come from different tables or passages of the source.
System: SLI-N309K parasites
Experiment: Growth inhibition assay (72 h, LDH activity)
Assay type: cell-based, Plasmodium falciparum
Details: for Growth inhibition, (1 - av / DMSO) x 100: Fig 2B source data, per biological replicate; for sample/DMSO: START(N309K), biological replicates 1-4; for pEC50: Plasmodium falciparum
Method: Parasite growth assays with inhibitory compounds were performed as per[11] and are fully described in the Supplementary Information.
Molecular biology and transfection of P. falciparum: Selection Linked Integration […]
To introduce the PfSTART1 mutations, the second half of the coding sequence of pfstart1 (PF3D7_0104200), was recodonised without introns to the bias of Saccharomyces cerevisiae containing either WT, N309K or N330K mutations, and synthesised as gBlock fragments (Integrated DNA Technologies). The first 819 bp of the 5′ native sequence of pfstart1 was amplified from gDNA, to form the 5’ homology block (5’ HB). The 3′ recodonised gBlock fragment comprising of the last 552 bp of either the WT, N309K or N330K pfstart1 to form the ‘recodon’ block (primers listed in Table S2). The 5’ HB and recodon products were sewn together by overlapping PCR to reconstitute the full coding sequence of pfstart1. These blocks (WT/N309K/N330K) were digested with BglII/PstI, and inserted into the parasite vector p-HA-2A-Neo-glmS
1. This plasmid contains an in -frame haemagglutinin (HA) epitope for protein identification and a P2A peptide (2A) to skip continuous peptide bond synthesis of a downstream neomycin resistance gene ( NeoR).
Parasites containing the transfected DNA were selected using 2.5 nM WR99210 (Jacobus). To select for parasites in which single crossover integration had occurred into the pfstart1 locus, parasites were treated with 400 μg/mL G418 (geniticin, Sigma Aldrich) for 14 days: only parasites that have integrated the construct into their genome expressed the neomycin resistance gene together with the PfSTART1 protein.
Parasite lines were cloned using limiting dilution. These clones were then tested on Western Blot (for correct HA-tagging and protein size), and correct integration and sequence were tested by PCR analysis: PCR on the gDNA was conducted using the primers START_5’UTR.F and START_Seq.R (Table S2). […]
Growth inhibition assays. Synchronised ring-stage parasites (0.3-0.6% parasitemia, 2% haematocrit) were grown for 72 h in a serial-dilution of the compound under […]
and compound 4. Note that M-833 was first purchased from MolPort (MolPort -002-267-916) then made in-house at WEHI: the differences observed in EC50s across experiments are attributed to the different batches of M -833. For some experiments, 0, 0.25 or 2.5 mM of glucosamine (GlcN) was also added. Experiments were set up in technical duplicates or triplicates. Following a freeze -thaw cycle, lactate dehydrogenase (LDH) activity was assessed as an indicator of parasite growt h 5. 30 μL of parasite culture was incubated for 30 min in the dark with 75 μL Malstat mixture (0.1 M Tris pH 9.0, 20 g/L lactic acid, pH 7.5, 0.2% Triton-X100, 0.5 g/L acetylpyridine adenine dinucleotide (APAD, Sigma), 200 μg/mL nitroblue tetrazolium (NBT; Sigma), 1 μg/mL phenozine ethosulfate (PES; Sigma)). Absorbance was then measured at 650 nm, transformed using the formula below, plotted against the logarithm of the concentrations, and a non-linear regression (log(inhibitor) vs. response, variable slope) was calculated using GraphPad Prism to assess the half-inhibitory […]
Growth inhibition % = (1 − average(sample)− average(uRBC)) ∗ 100 […]
The DMSO samples were also used to assess growth of parasite in the presence of 0.25 and 2.5 mM GlcN (normalised by DMSO in 0 mM GlcN).
Egress, invasion & recovery assay. To measure egress, invasion and follow up recovery in the presence of different compounds, we adapted the method developed in6, using Hyp1-Nluc parasites7. These parasites episomally express the exported PEXEL protein Hyp1 (PF3D7_0113300) tagged with a NanoLuc luciferase (NLuc) and were selected with 2.5 nM WR99210 (Jacobus). Highly synchronised schizonts were obtained using ML10 (LifeArc) and sorbitol synchronisation, and Percoll-purified (the culture was gently layered over 67% Percoll (Cytiva) in RPMI, and centrifuged for 15 min at 1500 g and the schizont layer was collected and washed). […]

In the case of `Cc1cc(Cl)c(S(=O)(=O)N2CCCC2)cc1OCC(=O)NC1CCCCC1` [M-833], the “Growth inhibition, (1 - av / DMSO) x 100” value (SLI-N309K, M-833 conc 0.00304832 (unit not given)) was -28.2579% and -1.2093% and -11.368%, the “Growth inhibition, (1 - av / DMSO) x 100” value (SLI-N309K, M-833 conc 0.00914495 (unit not given)) was -16.5589% and 4.977% and -8.756% and the “Growth inhibition, (1 - av / DMSO) x 100” value (SLI-N309K, M-833 conc 0.0274348 (unit not given)) was -9.0535% and 17.7442% and 3.575%. The “Growth inhibition, (1 - av / DMSO) x 100” value (SLI-N309K, M-833 conc 0.0823045 (unit not given)) was -11.797% and 21.4186% and -2.462%, the “Growth inhibition, (1 - av / DMSO) x 100” value (SLI-N309K, M-833 conc 0.246914 (unit not given)) was -0.0196% and 23.5116% and 10.1477% and the “Growth inhibition, (1 - av / DMSO) x 100” value (SLI-N309K, M-833 conc 0.740741 (unit not given)) was 27.0233% and 58.6744% and 26.0116%. The “Growth inhibition, (1 - av / DMSO) x 100” value (SLI-N309K, M-833 conc 2.22222 (unit not given)) was 70.1744% and 76.5116% and 55.7482%, the “Growth inhibition, (1 - av / DMSO) x 100” value (SLI-N309K, M-833 conc 6.66667 (unit not given)) was 87.2624% and 94.814% and 86.8337% and the “Growth inhibition, (1 - av / DMSO) x 100” value (SLI-N309K, M-833 conc 20 (unit not given)) was 88.5166% and 95.5116% and 93.0422%. The sample/DMSO (M-833 0.00152416 uM, 0 mM GlcN) was 2.39, the sample/DMSO (M-833 0.00152416 uM, 0.25 mM GlcN) was 4.826 and 2.498 and the sample/DMSO (M-833 0.00152416 uM, 2.5 mM GlcN) was 6.332. The sample/DMSO (M-833 0.00457247 uM, 0 mM GlcN) was 13.8723 and 0.5123 and 3.546 and -3.543, the sample/DMSO (M-833 0.00457247 uM, 0.25 mM GlcN) was 7.1 and 10.4012 and -2.062 and -3.605 and the sample/DMSO (M-833 0.00457247 uM, 2.5 mM GlcN) was 13.3216 and 19.7117 and 1.5728 and -5.599. The sample/DMSO (M-833 0.0137174 uM, 0 mM GlcN) was 7.619 and -0.2396 and 1.751 and 10.2857, the sample/DMSO (M-833 0.0137174 uM, 0.25 mM GlcN) was 8.4852 and 5.851 and 4.488 and 5.637 and the sample/DMSO (M-833 0.0137174 uM, 2.5 mM GlcN) was 21.8449 and 8.908 and 5.227 and 1.886. For the same compound, the sample/DMSO (M-833 0.0411523 uM, 0 mM GlcN) was 1.68 and 3.644 and 4.3 and 2.606, the sample/DMSO (M-833 0.0411523 uM, 0.25 mM GlcN) was 17.5682 and 13.2615 and 4.177 and 1.848 and the sample/DMSO (M-833 0.0411523 uM, 2.5 mM GlcN) was 19.1718 and 12.6822 and 8.512 and 8.472. The sample/DMSO (M-833 0.123457 uM, 0 mM GlcN) was 3.306 and 10.0306 and 17.9209 and 10.4229, the sample/DMSO (M-833 0.123457 uM, 0.25 mM GlcN) was 21.665 and 12.0728 and 20.7856 and 13.6953 and the sample/DMSO (M-833 0.123457 uM, 2.5 mM GlcN) was 31.9676 and 15.6301 and 24.5056 and 24.9447. The sample/DMSO (M-833 0.37037 uM, 0 mM GlcN) was 13.628 and 22.7795 and 30.4444 and 24.0457, the sample/DMSO (M-833 0.37037 uM, 0.25 mM GlcN) was 34.9176 and 21.471 and 31.1561 and 33.3027 and the sample/DMSO (M-833 0.37037 uM, 2.5 mM GlcN) was 40.447 and 24.7651 and 37.6894 and 48.2393. For the same compound, the sample/DMSO (M-833 1.11111 uM, 0 mM GlcN) was 28.3402 and 44.5509 and 44.7966 and 56.0914, the sample/DMSO (M-833 1.11111 uM, 0.25 mM GlcN) was 53.0252 and 39.9238 and 58.0645 and 67.3975 and the sample/DMSO (M-833 1.11111 uM, 2.5 mM GlcN) was 64.9649 and 41.0107 and 63.8256 and 74.1417. For the same compound, the sample/DMSO (M-833 3.33333 uM, 0 mM GlcN) was 62.0018 and 73.866 and 73.9333 and 81.5771, the sample/DMSO (M-833 3.33333 uM, 0.25 mM GlcN) was 83.0296 and 69.5951 and 81.4805 and 87.3149 and the sample/DMSO (M-833 3.33333 uM, 2.5 mM GlcN) was 83.83 and 68.173 and 80.0856 and 88.1096. For the same compound, the sample/DMSO (M-833 10 uM, 0 mM GlcN) was 89.1663 and 89.2589 and 93.2173 and 92.8571, the sample/DMSO (M-833 10 uM, 0.25 mM GlcN) was 91.9813 and 85.912 and 92.402 and 91.8609 and the sample/DMSO (M-833 10 uM, 2.5 mM GlcN) was 89.5706 and 77.5672 and 88.9441 and 91.41. The pEC50 (72 h, Fig 2B, SLI-N309K, 72 h, n = 3, unit only in x-axis title, read-out: EC50 (95% confidence interval)) was 6.00, the pEC50 (Fig 3C, SLI-N309K, 0 mM GlcN, n = 4, unit on plot axis, read-out: EC50 M-833 (95% confidence interval)) was 5.79 and the pEC50 (Fig 3C, SLI-N309K, 0.25 mM GlcN, n = 4, unit on plot axis, read-out: EC50 M-833 (95% confidence interval)) was 6.01. For the same compound, the pEC50 (Fig 3C, SLI-N309K, 2.5 mM GlcN, n = 4, unit on plot axis, read-out: EC50 M-833 (95% confidence interval)) was 6.19, the “fold more resistant than the 3D7 parental parasites” value (SLI-N309K, Fig 2B) was 10 fold and the “fold reduction of EC50 on addition of 2.5 mM GlcN” value (SLI-N309K, not statistically significant) was 2.5 fold.
